Here are results for 13 compounds from publication PMC4141209 (FEBS Open Bio, 2014).

The test system of experiment [1] is TlLhpI. The experiment is described as follows: NADH oxidation at […] nm. Format: biochemical, Thermococcus litoralis. The conditions noted are these: NADH 0.15 mM, NH4Cl 700 mM, Tris-HCl pH 8.0, 50 °C.
Experiment [2] has as its system TlLhpI. Particulars: NADH 0.15 mM, NH4Cl 700 mM, Tris-HCl pH 8.0, 50 °C.
Experiment [3] concerns TlLhpI. The experiment is described as follows: NAD+ reduction at […] nm. The class given is biochemical, Thermococcus litoralis.
Experiment [4] has as its system TlLhpI. The conditions noted are these: NAD+ 1.5 mM, Bis-tris propane pH 10.5, 50 °C.
For experiment [5], the system named is TlLhpI. The experiment is described as follows: NADH oxidation at […] nm. Format: biochemical, Thermococcus litoralis. Particulars: NADH 0.15 mM, potassium phosphate pH 6.0, 50 °C.
Experiment [6] has as its system TlLhpI. Particulars: NADH 0.15 mM, potassium phosphate pH 6.0, 50 °C.
Where [7] appears, read: NAD+ 1.5 mM, Bis-tris propane pH 10.5, 50 °C.
[8] abbreviates: NAD+-dependent oxidation, 50 °C.

Like-named read-outs stand apart in the source and are kept apart here.

As a reminder, the Km is the concentration of substrate that gives half-maximal velocity. `CCC(=O)C(=O)O` [2-Oxobutyrate]: the Km in the experiment with TlLhpI [1] is 701 ± 20 µM.

As to `CCCC(=O)C(=O)O` [2-Oxovalerate], the Michaelis constant (Km) in the experiment with TlLhpI [1] was 969 ± 93 µM; with TlLhpI [2], 1820 ± 140 µM.

`CC(C)CC(=O)C(=O)O` [4-Methyl-2-oxovalerate]: the Michaelis constant (Km) in the experiment on TlLhpI [1] was determined as 2520 ± 450 µM.

`CC[C@H](N)C(=O)O` [L-2-Aminobutyrate]: in the experiment on TlLhpI [3] (setting [7]), the Km amounted to 6000 ± 290 µM.

Turning to `CCC[C@H](N)C(=O)O` [L-2-Aminovalerate], the figures for the Km in the experiment with TlLhpI [3] (setting [7]) and in the experiment with TlLhpI [4] were 306 ± 9 µM and 2130 ± 300 µM, respectively.

On to `C[C@H](N)C(=O)O` [L-Alanine], for which the Km in the experiment on TlLhpI [3] (setting [7]) stood at 18200 ± 5000 µM; in the experiment with TlLhpI [4], 36900 ± 900 µM.

Turning to `CC(C)C[C@H](N)C(=O)O` [L-Leucine], in the experiment with TlLhpI [3] (setting [7]), the Km came out at 1320 ± 100 µM.

On to `O=C(O)[C@@H]1CCCCN1` [L-Pipecolate], for which, in the experiment on TlLhpI [3] (setting [8]), the Km came out at 608 ± 115 µM.

For `O=C(O)[C@@H]1CCCN1` [L-Proline], the Km in the experiment with TlLhpI [3] (setting [7]) was 1120 ± 120 µM; in the experiment on TlLhpI [4] it was 444 ± 8 µM.

As to `CN[C@@H](C)C(=O)O` [N-Methyl-L-alanine], the Km with TlLhpI [3] (setting [8]) worked out at 406 ± 44 µM.

In the case of `O=C(O)CC(=O)C(=O)O` [Oxalacetate], the Km with TlLhpI [1] was determined as 8860 ± 910 µM.

Turning to `O=C(O)C1=NCCC1` [Pyr2C, Δ^1-pyrroline-2-carboxylate], the results for the Km with TlLhpI [5] and with TlLhpI [6] were 944 ± 90 µM and 2770 ± 440 µM, respectively.

Take `CC(=O)C(=O)O` [Pyruvate]: the results for the Km in the experiment with TlLhpI [1] and in the experiment with TlLhpI [2] were 9370 ± 230 µM and 62000 ± 12200 µM, respectively.
